# Measurements as given in PubChem BioAssay AID1745844 (Carcinogenic Potency Database (CPDB), 2022).
# Activity calls are given as the source filed them. The rule behind the calls is not given here.
# Tested on: rodent lifetime carcinogenesis bioassay, tumor incidence TD50
# Assay: chronic cancer bioassays in animals – CPDB, compiled studies (AID 1745844)
smiles,measurement,setting,value
O=C1NS(=O)(=O)c2ccccc21,TD50,"monkey, strain Rhesus [Macaca mulatta], both sexes, in feed, site: any site (literature study), lesion: malignant tumor, dosed 1221 weeks, study length 1221 weeks",610 mg/kg/day
same,TD50,"monkey, strain Rhesus [Macaca mulatta], both sexes, in feed, site: thyroid gland, lesion: lymphoma, dosed 1221 weeks, study length 1221 weeks",43.3 mg/kg/day
same,TD50,"mouse, strain CD-1 HaM/ICR, females, in feed, site: any site (literature study), lesion: several types, types named in the paper, dosed 104 weeks, study length 104 weeks",26100 mg/kg/day (inactive)
same,carcinogen call,"mouse, strain CD-1 HaM/ICR, females, in feed, site: liver, lesion: one or several types, types not named, dosed 104 weeks, study length 104 weeks",negative (inactive)
same,carcinogen call,"mouse, strain CD-1 HaM/ICR, females, in feed, site: lung, lesion: one or several types, types not named, dosed 104 weeks, study length 104 weeks",negative (inactive)
same,TD50,"mouse, strain CD-1 HaM/ICR, males, in feed, site: any site (literature study), lesion: several types, types named in the paper, dosed 104 weeks, study length 104 weeks",881 mg/kg/day (inactive)
same,carcinogen call,"mouse, strain CD-1 HaM/ICR, males, in feed, site: liver, lesion: hepatoma, dosed 104 weeks, study length 104 weeks",negative (inactive)
same,TD50,"mouse, strain CD-1 HaM/ICR, males, in feed, site: lung, lesion: one or several types, types not named, dosed 104 weeks, study length 104 weeks",1360 mg/kg/day (inactive)
same,carcinogen call,"mouse, strain Swiss albino, females, in feed, site: liver, lesion: hepatoma, dosed 76 weeks, study length 76 weeks",negative (inactive)
same,TD50,"mouse, strain Swiss albino, females, in feed, site: lung, lesion: one or several types, types not named, dosed 76 weeks, study length 76 weeks",56300 mg/kg/day (inactive)
same,carcinogen call,"mouse, strain Swiss, females, in feed, site: urinary bladder, lesion: anaplastic carcinoma, dosed 91 weeks, study length 91 weeks",negative (inactive)
same,carcinogen call,"mouse, strain Swiss, males, in feed, site: urinary bladder, lesion: transitional-cell carcinoma, dosed 91 weeks, study length 91 weeks",negative (inactive)
same,TD50,"rat, strain ACI, males, in feed, site: urinary bladder, lesion: papilloma, dosed 52 weeks, study length 52 weeks",1110 mg/kg/day
same,TD50,"rat, strain ACI, males, in feed, site: urinary bladder, lesion: transitional-cell carcinoma, dosed 52 weeks, study length 52 weeks",3710 mg/kg/day
same,carcinogen call,"rat, strain Analbuminaemic (Sprague-Dawley derived), males, in feed, site: urinary bladder, lesion: carcinoma, dosed 80 weeks, study length 80 weeks",negative (inactive)
same,TD50,"rat, strain Charles River CD (Sprague-Dawley), females, in feed, site: liver, lesion: biliary cystadenoma, dosed 142 weeks, study length 142 weeks",155000 mg/kg/day
same,TD50,"rat, strain Charles River CD (Sprague-Dawley), females, in feed, site: liver, lesion: cholangiocarcinoma, dosed 113 weeks, study length 113 weeks",78200 mg/kg/day (inactive)
same,TD50,"rat, strain Charles River CD (Sprague-Dawley), females, in feed, site: liver, lesion: neoplastic nodule, dosed 142 weeks, study length 142 weeks",155000 mg/kg/day
same,TD50,"rat, strain Charles River CD (Sprague-Dawley), females, in feed, site: liver, lesion: nodular hyperplasia, dosed 113 weeks, study length 113 weeks",98400 mg/kg/day (inactive)
same,carcinogen call,"rat, strain Charles River CD (Sprague-Dawley), males, in feed, site: any site (literature study), lesion: several types, types named in the paper, dosed 104 weeks, study length 104 weeks",negative (inactive)
same,TD50,"rat, strain Charles River CD (Sprague-Dawley), males, in feed, site: liver, lesion: biliary cystadenoma, dosed 142 weeks, study length 142 weeks",60000 mg/kg/day
same,carcinogen call,"rat, strain Charles River CD (Sprague-Dawley), males, in feed, site: liver, lesion: hepatocellular carcinoma, dosed 113 weeks, study length 113 weeks",negative (inactive)
same,TD50,"rat, strain Charles River CD (Sprague-Dawley), males, in feed, site: parathyroid, lesion: adenoma, dosed 142 weeks, study length 142 weeks",23200 mg/kg/day
same,TD50,"rat, strain Charles River CD (Sprague-Dawley), males, in feed, site: urinary bladder, lesion: transitional-cell carcinoma, dosed 142 weeks, study length 142 weeks",31100 mg/kg/day
same,TD50,"rat, strain Charles River CD (Sprague-Dawley), males, in feed, site: urinary bladder, lesion: transitional-cell papilloma, dosed 142 weeks, study length 142 weeks",30800 mg/kg/day
same,carcinogen call,"rat, strain Fischer 344, males, in feed, site: forestomach, lesion: papilloma, dosed 72 weeks, study length 73 weeks",negative (inactive)
same,carcinogen call,"rat, strain Fischer 344, males, in feed, site: urinary bladder, lesion: carcinoma, dosed 72 weeks, study length 73 weeks",negative (inactive)
same,carcinogen call,"rat, strain Fischer 344, males, in feed, site: urinary bladder, lesion: one or several types, types not named, dosed 52 weeks, study length 52 weeks",negative (inactive)
same,carcinogen call,"rat, strain Fischer 344, males, in feed, site: urinary bladder, lesion: one or several types, types not named, dosed 72 weeks, study length 72 weeks",negative (inactive)
same,carcinogen call,"rat, strain Fischer 344, males, in feed, site: urinary bladder, lesion: one or several types, types not named, dosed 102 weeks, study length 104 weeks",negative (inactive)
same,carcinogen call,"rat, strain Fischer 344, males, in feed, site: urinary bladder, lesion: one or several types, types not named, dosed 104 weeks, study length 104 weeks",negative (inactive)
same,TD50,"rat, strain Fischer 344, males, in feed, site: urinary bladder, lesion: papilloma, dosed 104 weeks, study length 104 weeks",54100 mg/kg/day
same,TD50,"rat, strain Fischer, males, in feed, site: testis, lesion: interstitial-cell tumor, dosed 77 weeks, study length 98 weeks",613 mg/kg/day
same,carcinogen call,"rat, strain Fischer, males, in feed, site: urinary bladder, lesion: several types, types named in the paper, dosed 100 weeks, study length 104 weeks",negative (inactive)
same,TD50,"rat, strain Sprague-Dawley, both sexes, in feed, site: any site (literature study), lesion: malignant tumor, dosed 130 weeks, study length 130 weeks",4100 mg/kg/day (inactive)
same,carcinogen call,"rat, strain Sprague-Dawley, both sexes, in feed, site: urinary bladder, lesion: one or several types, types not named, dosed 130 weeks, study length 130 weeks",negative (inactive)
same,carcinogen call,"rat, strain Sprague-Dawley, males, in feed, site: urinary bladder, lesion: carcinoma, dosed 80 weeks, study length 80 weeks",negative (inactive)
same,carcinogen call,"rat, strain Sprague-Dawley, males, in feed, site: urinary bladder, lesion: one or several types, types not named, dosed 52 weeks, study length 52 weeks",negative (inactive)
same,TD50,"rat, strain Wistar, both sexes, in feed, site: urinary bladder, lesion: one or several types, types not named, dosed 104 weeks, study length 104 weeks",125000 mg/kg/day
same,carcinogen call,"rat, strain Wistar, males, in feed, site: urinary bladder, lesion: one or several types, types not named, dosed 52 weeks, study length 52 weeks",negative (inactive)
CC(C)(c1ccc(O)cc1)c1ccc(O)cc1,carcinogen call,"mouse, strain B6C3F1, females, in feed, site: any site (literature study), lesion: several types, types named in the paper, dosed 103 weeks, study length 107 weeks",negative (inactive)
same,TD50,"mouse, strain B6C3F1, females, in feed, site: liver, lesion: hepatocellular adenoma + hepatocellular carcinoma + neoplastic nodule, dosed 103 weeks, study length 107 weeks",13100 mg/kg/day
same,TD50,"mouse, strain B6C3F1, females, in feed, site: lung, lesion: alveolar/bronchiolar adenoma + alveolar/bronchiolar carcinoma, dosed 103 weeks, study length 107 weeks",41400 mg/kg/day
same,TD50,"mouse, strain B6C3F1, males, in feed, site: all sites, lesion: leukemia + lymphoma, dosed 103 weeks, study length 107 weeks",445 mg/kg/day (inactive)
same,TD50,"mouse, strain B6C3F1, males, in feed, site: all sites, lesion: lymphoma, dosed 103 weeks, study length 107 weeks",508 mg/kg/day
same,TD50,"mouse, strain B6C3F1, males, in feed, site: any site (literature study), lesion: several types, types named in the paper, dosed 103 weeks, study length 107 weeks",1.32e+06 mg/kg/day
same,TD50,"mouse, strain B6C3F1, males, in feed, site: pituitary gland, lesion: chromophobe carcinoma, dosed 103 weeks, study length 107 weeks",6690 mg/kg/day
same,carcinogen call,"rat, strain Fischer 344, females, in feed, site: any site (literature study), lesion: several types, types named in the paper, dosed 103 weeks, study length 108 weeks",negative (inactive)
same,TD50,"rat, strain Fischer 344, females, in feed, site: liver, lesion: hepatocellular adenoma + hepatocellular carcinoma + neoplastic nodule, dosed 103 weeks, study length 108 weeks",595 mg/kg/day
same,TD50,"rat, strain Fischer 344, males, in feed, site: mammary gland, lesion: fibroadenoma, dosed 103 weeks, study length 108 weeks",675 mg/kg/day (inactive)
NC(=S)NNS(=O)(=O)c1ccccc1,TD50,"mouse, strain Swiss, females, by gavage, site: liver, lesion: liver-cell tumor, dosed 50 weeks, study length 60 weeks",46.6 mg/kg/day
same,TD50,"mouse, strain Swiss, females, by gavage, site: lung, lesion: one or several types, types not named, dosed 50 weeks, study length 60 weeks",46.6 mg/kg/day
C[N+](C)(C)CCO,TD50,"mouse, strain C3H/HeN, males, in feed, site: liver, lesion: hepatocellular adenoma, dosed 52 weeks, study length 52 weeks",5650 mg/kg/day
same,TD50,"mouse, strain C3H/HeN, males, in feed, site: liver, lesion: hepatocellular carcinoma, dosed 52 weeks, study length 52 weeks",6060 mg/kg/day
same,TD50,"mouse, strain C3H/HeN, males, in feed, site: liver, lesion: several types, types named in the paper, dosed 52 weeks, study length 52 weeks",2770 mg/kg/day
same,carcinogen call,"rat, strain Fischer 344, males, in feed, site: liver, lesion: neoplastic nodule, dosed 72 weeks, study length 103 weeks",negative (inactive)
[Cl][Sn][Cl],TD50,"mouse, strain B6C3F1, females, in feed, site: all sites, lesion: lymphoma, histiocytic type, dosed 105 weeks, study length 105 weeks",2550 mg/kg/day
same,TD50,"mouse, strain B6C3F1, females, in feed, site: any site (literature study), lesion: several types, types named in the paper, dosed 105 weeks, study length 105 weeks",386 mg/kg/day
same,TD50,"mouse, strain B6C3F1, females, in feed, site: liver, lesion: hepatocellular adenoma + hepatocellular carcinoma + neoplastic nodule, dosed 105 weeks, study length 105 weeks",1020 mg/kg/day
same,TD50,"mouse, strain B6C3F1, females, in feed, site: liver, lesion: hepatocellular carcinoma, dosed 105 weeks, study length 105 weeks",1420 mg/kg/day
same,TD50,"mouse, strain B6C3F1, females, in feed, site: pituitary gland, lesion: adenoma, dosed 105 weeks, study length 105 weeks",1390 mg/kg/day (inactive)
same,carcinogen call,"mouse, strain B6C3F1, males, in feed, site: any site (literature study), lesion: several types, types named in the paper, dosed 105 weeks, study length 105 weeks",negative (inactive)
same,carcinogen call,"mouse, strain Charles River CD1, both sexes, in drinking water, site: any site (literature study), lesion: benign tumor, dosed 104 weeks, study length 104 weeks",negative (inactive)
same,carcinogen call,"mouse, strain Charles River CD1, both sexes, in drinking water, site: any site (literature study), lesion: malignant tumor, dosed 104 weeks, study length 104 weeks",negative (inactive)
same,carcinogen call,"mouse, strain Charles River CD1, both sexes, in drinking water, site: any site (literature study), lesion: several types, types named in the paper, dosed 104 weeks, study length 104 weeks",negative (inactive)
same,carcinogen call,"mouse, strain Charles River CD1, both sexes, in drinking water, site: lung, lesion: adenoma, dosed 104 weeks, study length 104 weeks",negative (inactive)
same,carcinogen call,"mouse, strain Charles River CD1, both sexes, in drinking water, site: lung, lesion: several types, types named in the paper, dosed 104 weeks, study length 104 weeks",negative (inactive)
same,TD50,"rat, strain Fischer 344, females, in feed, site: any site (literature study), lesion: several types, types named in the paper, dosed 105 weeks, study length 104 weeks",12000 mg/kg/day (inactive)
same,TD50,"rat, strain Fischer 344, females, in feed, site: liver, lesion: hepatocellular adenoma + hepatocellular carcinoma + neoplastic nodule, dosed 105 weeks, study length 104 weeks",676000 mg/kg/day
same,TD50,"rat, strain Fischer 344, males, in feed, site: any site (literature study), lesion: several types, types named in the paper, dosed 104 weeks, study length 104 weeks",180 mg/kg/day
same,TD50,"rat, strain Fischer 344, males, in feed, site: lung, lesion: alveolar/bronchiolar adenoma, dosed 104 weeks, study length 104 weeks",951 mg/kg/day
same,TD50,"rat, strain Fischer 344, males, in feed, site: thyroid gland, lesion: c-cell adenoma + c-cell carcinoma, dosed 104 weeks, study length 104 weeks",87.4 mg/kg/day (inactive)
same,TD50,"rat, strain Fischer 344, males, in feed, site: thyroid gland, lesion: c-cell carcinoma, dosed 104 weeks, study length 104 weeks",405 mg/kg/day
same,carcinogen call,"rat, strain Long-Evans BLU:(LE), both sexes, in drinking water, site: any site (literature study), lesion: malignant tumor, dosed 156 weeks, study length 156 weeks",negative (inactive)
same,carcinogen call,"rat, strain Long-Evans BLU:(LE), both sexes, in drinking water, site: any site (literature study), lesion: one or several types, types not named, dosed 156 weeks, study length 156 weeks",negative (inactive)
same,carcinogen call,"rat, strain Long-Evans BLU:(LE), both sexes, in drinking water, site: liver, lesion: one or several types, types not named, dosed 156 weeks, study length 156 weeks",negative (inactive)
